Measurements published in US20240025906A1 (NEURON23, INC., priority 2022, published 2024).

What was measured:
[1] = target: T1, TYK2 JH2 (Homo sapiens, UniProt P29597); test: TYK2 JH2 binding assay (KINOMEscan KdELECT competitive binding); details: TYK2 JH2 domain, DiscoverX KINOMEscan KdELECT (Assay A); read-out: Biochemical TYK2_DiscoverX_JH2_BND_Kd
T1 construct: purchased DiscoverX (KINOMEscan KdELECT service); host or cells: E. coli BL21-derived (T7 phage display) or HEK-293
Outline: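 JH2-domain fragment, expressed as T7 phage tag in BL21-derived E. coli or DNA-tagged from HEK-293, competed with test compound against bead-immobilized biotinylated ligand in binding buffer (0.9% DMSO). 1 h shaking at room temperature; bound kinase eluted with 0.5 μM free ligand and quantified by qPCR. Kd from 11-point 3-fold dilutions.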

[2] = test system: JAK1/TYK2 pSTAT5 (Tyr694/699) in THP-1 cell line; test: IFNa-stimulated JAK1/TYK2 pSTAT5 (Tyr694/699) inhibition cellular assay, AlphaLISA; format: cell-based; details: Homo sapiens; THP-1 cells, IFNa-stimulated, AlphaLISA (Assay B); read-out: Cellular_THP1_IFNa-pSTATS_TYK2
Outline: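 THP-1, 2e4 cells/well, HBSS; cpd 1 h 37 °C (10000–0.04 nM final, 6-fold, 8 pt); IFNa 100 ng/mL added, 30 min; lyse, freeze −80 °C; pSTAT5 AlphaLISA, 615 nm; 4PL IC50, bottom fixed 0, slope −1.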

T1 sequence (P29597 589-875 limits assumed): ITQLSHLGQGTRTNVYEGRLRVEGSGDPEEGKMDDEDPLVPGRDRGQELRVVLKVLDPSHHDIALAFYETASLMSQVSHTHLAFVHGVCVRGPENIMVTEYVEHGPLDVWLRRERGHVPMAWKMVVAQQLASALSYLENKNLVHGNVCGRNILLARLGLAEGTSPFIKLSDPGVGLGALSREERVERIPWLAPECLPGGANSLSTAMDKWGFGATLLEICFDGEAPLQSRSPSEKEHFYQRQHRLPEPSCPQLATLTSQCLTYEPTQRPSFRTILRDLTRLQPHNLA

| SMILES | Kd [1] [µM] | IC50 [2] [µM] |
| --- | --- | --- |
| CNc1ncc(-c2nc3cc(OC)ccc3o2)c2cc(Nc3cc(C)nc(C)n3)ncc12 [Example 377, N^6-(2,6-dimethylpyrimidin-4-yl)-4-(5-methoxybenzo[d]oxazol-2-yl)-N^1-methyl-2,7-naphthyridine-1,6-diamine] | ≤ 0.1 | ≤ 0.5 |
| CNc1ncc(-c2nc3cc(OC)ccc3o2)c2cc(Nc3ccc(OC)cn3)ncc12 [Example 378, 4-(5-methoxybenzo[d]oxazol-2-yl)-N^6-(5-methoxypyridin-2-yl)-N^1-methyl-2,7-naphthyridine-1,6-diamine] | ≤ 0.1 | ≤ 0.5 |
| CNc1ncc(-c2nc3cc(OC)ccc3o2)c2cc(Nc3cccc(OC)n3)ncc12 [Example 379, 4-(5-methoxybenzo[d]oxazol-2-yl)-N^6-(6-methoxypyridin-2-yl)-N^1.methyl-2,7-naphthyridine-1,6-diamine] | ≤ 0.1 | ≤ 0.5 |
| CNc1ncc(-c2nc3cc(OC)ccc3o2)c2cc(Nc3ccc(N4CCOCC4)cn3)ncc12 [Example 380, 4-(5-methoxybenzo[d]oxazol-2-yl)-N^1-methyl-N^6-(5-morpholinopyridin-2-yl)-2,7-naphthyridine-1,6-diamine] | ≤ 0.1 | ≤ 0.5 |
| CNc1ncc(-c2nc3cc(OC)ccc3o2)c2cc(NC(=O)C3(F)CC3)ncc12 [Example 381, 1-fluoro-N-(5-(5-methoxybenzo[d]oxazol-2-yl)-8-(methylamino)-2,7-naphthyridin-3-yl)cyclopropane-1-carboxamide] | ≤ 0.1 | > 0.5 |
| CNc1ncc(-c2nc3cc(OC)ccc3o2)c2cc(NC(=O)[C@H]3C[C@H]3C)ncc12 [Example 384, (1S,2R)-N-(5-(5-methoxybenzo[d]oxazol-2-yl)-8-(methylamino)-2,7-naphthyridin-3-y1)-2-methylcyclopropane-1-carboxamide] | ≤ 0.1 | ≤ 0.5 |
| CNc1ncc(-c2nc3cc(OC)ccc3o2)c2cc(NC(=O)CC(F)(F)F)ncc12 [Example 386, 3,3,3-trifluoro-N-(5-(5-methoxybenzo[d]oxazol-2-yl)-8-(methylamino)-2,7-naphthyridin-3-yl)propanamide] | ≤ 0.1 | ≤ 0.5 |
| CNc1ncc(-c2nc3cc(OC)ccc3o2)c2cc(NC(=O)[C@H]3C[C@H]3F)ncc12 [Example 387, (1R,2R)-2-fluoro-N-(5-(5-methoxybenzo[d]oxazol-2-y1)-8-(methylamino)-2,7-naphthyridin-3-yl)cyclopropane-1-carboxamide] | ≤ 0.1 | ≤ 0.5 |
| CNc1ncc(-c2nc3cc(OC)ccc3o2)c2cc(NC(=O)[C@@H]3C[C@@H]3F)ncc12 [Example 388, (1S,2S)-2-fluoro-N-(5-(5-methoxybenzo[d]oxazol-2-y1)-8-(methylamino)-2,7-naphthyridin-3-yl)cyclopropane-1-carboxamide] | ≤ 0.1 | ≤ 0.5 |
| CNc1ncc(-c2nc3cc(OC)ccc3o2)c2cc(NC(=O)[C@H]3C[C@@H]3F)ncc12 [Example 389, (1R,2S)-2-fluoro-N-(5-(5-methoxybenzo[d]oxazol-2-yl)-8-(methylamino)-2,7-naphthyridin-3-yl)cyclopropane-1-carboxamide] | ≤ 0.1 | ≤ 0.5 |
| CNc1ncc(-c2nc3cc(OC)ccc3o2)c2cc(NC(=O)[C@@H]3C[C@H]3F)ncc12 [Example 390, (1S,2R)-2-fluoro-N-(5-(5-methoxybenzo[d]oxazol-2-yl)-8-(methylamino)-2,7-naphthyridin-3-yl)cyclopropane-1-carboxamide] | ≤ 0.1 | ≤ 0.5 |
| CNc1ncc(-c2nc3cc(OC)ccc3o2)c2cc(NC(=O)CC(C)(O)CO)ncc12 (centres unmarked) [Example 402, 3,4-dihydroxy-N-(5-(5-methoxybenzo[d]oxazol-2-yl)-8-(methylamino)-2,7-naphthyridin-3-yl)-3-methylbutanamide] | ≤ 0.1 | > 0.5 |
| CNc1ncc(-c2nc3cc(OC)ccc3o2)c2cc(NC3CCC(=O)O3)ncc12 (centres unmarked) [Example 403, 5-((5-(5-methoxybenzo[d]oxazol-2-yl)-8-(methylamino)-2,7-naphthyridin-3-yl)amino)dihydrofuran-2(3H)-one] | ≤ 0.1 | > 0.5 |
| CNc1ncc(-c2nc3cc(OC)ccc3o2)c2cc(NC(=O)C3(O)CC3)ncc12 [Example 404, 1-hydroxy-N-(5-(5-methoxybenzo[d]oxazol-2-yl)-8-(methylamino)-2,7-naphthyridin-3-yl)cyclopropane-1-carboxamide] | ≤ 0.1 | ≤ 0.5 |
| CNc1ncc(-c2nc3cc(N4CCO[C@@H](C)C4)ccc3o2)c2cc(NC(=O)[C@@H]3C[C@@H]3F)ncc12 [Example 407, (1S,2S)-2-fluoro-N-(8-(methylamino)-5-(5-((S)-2-methylmorpholino)benzo[d]oxazol-2-yl)-2,7-naphthyridin-3-yl)cyclopropane-1-carboxamide] | ≤ 0.1 | ≤ 0.5 |
| CNc1ncc(-c2nc3cc(N4CCO[C@@H](C)C4)ccc3o2)c2cc(NC(=O)[C@H]3C[C@H]3C)ncc12 [Example 408, (1S,2R)-2-methyl-N-(8-(methylamino)-5-(5-((S)-2-methylmorpholino)benzo[d]oxazol-2-yl)-2,7-naphthyridin-3-yl)cyclopropane-1-carboxamide] | ≤ 0.1 | ≤ 0.5 |
| CNc1ncc(-c2nc3cc(N4CCO[C@@H](C)C4)ccc3o2)c2cc(NC(=O)C3(C)CC3)ncc12 [Example 409, (S)-1-methyl-N-(8-(methylamino)-5-(5-(2-methylmorpholino)benzo[d]oxazol-2-yl)-2,7-naphthyridin-3-yl)cyclopropane-4-carboxamide] | ≤ 0.1 | ≤ 0.5 |
| CNc1ncc(-c2nc3cc(N4CCO[C@@H](C)C4)ccc3o2)c2cc(Nc3ccn(C)n3)ncc12 [Example 417, (S)—N^1-methyl-N^6-(1-methyl-1H-pyrazol-3-yl)-4-(5-(2-methylmorpholino)benzo[d]oxazol-2-yl)-2,7-naphthyridine-1,6-diamine] | ≤ 0.1 | ≤ 0.5 |
| CNc1ncc(-c2nc3cc(N4CCO[C@H](C)C4)ccc3o2)c2cc(NC(=O)[C@@H]3C[C@@H]3F)ncc12 [Example 418, (1S,2S)-2-fluoro-N-(8-(methylamino)-5-(5-((R)-2-methylmorpholino)benzo[d]oxazol-2-yl)-2,7-naphthyridin-3-yl)cyclopropane-1-carboxamide] | ≤ 0.1 | ≤ 0.5 |
| CNc1ncc(-c2nc3cc(N4CCO[C@H](C)C4)ccc3o2)c2cc(NC(=O)[C@H]3C[C@H]3C)ncc12 [Example 419, (1S,2R)-2-methyl-N-(8-(methylamino)-5-(5-((R)-2-methylmorpholino)benzo[d]oxazol-2-yl)-2,7-naphthyridin-3-yl)cyclopropane-1-carboxamide] | ≤ 0.1 | ≤ 0.5 |
| CNc1ncc(-c2nc3cc(N4CCO[C@H](C)C4)ccc3o2)c2cc(Nc3ccccn3)ncc12 [Example 420, (R)—N^1-methyl-4-(5-(2-methylmorpholino)benzo[d]oxazol-2-yl)-N^6-(pyridin-2-yl)-2,7-naphthyridine-1,6-diamine] | ≤ 0.1 | ≤ 0.5 |
| CNc1ncc(-c2nc3cc(N4CCOCC4)ccc3o2)c2cc(NC(=O)[C@@H]3CC3(F)F)ncc12 [Example 421, (S)-2,2-difluoro-N-(8-(methylamino)-5-(5-morpholinobenzo[d]oxazol-2-yl)-2,7-naphthyridin-3-yl)cyclopropane-1-carboxamide] | ≤ 0.1 | ≤ 0.5 |
| CNc1ncc(-c2nc3cc(N4CCOCC4)ccc3o2)c2cc(NC(=O)[C@H]3CC3(F)F)ncc12 [Example 422, (R)-2,2-difluoro-N-(8-(methylamino)-5-(5-morpholinobenzo[d]oxazol-2-y1)-2,7-naphthyridin-3-yl)cyclopropane-1-carboxamide] | ≤ 0.1 | ≤ 0.5 |
| CNc1ncc(-c2nc3cc(N4CCOCC4)ccc3o2)c2cc(NC(=O)[C@H]3C[C@H]3C)ncc12 [Example 423, (1S,2R)-2-methyl-N-(8-(methylamino)-5-(5-morpholinobenzo[d]oxazol-2-yl)-2,7-naphthyridin-3-yl)cyclopropane-1-carboxamide] | ≤ 0.1 | ≤ 0.5 |
| CNc1ncc(-c2nc3cc(N4CCOCC4)ccc3o2)c2cc(NC(=O)[C@@H]3C[C@@H]3F)ncc12 [Example 424, (1S,2S)-2-fluoro-N-(8-(methylamino)-5-(5-morpholinobenzo[d]oxazol-2-yl)-2,7-naphthyridin-3-yl)cyclopropane-1-carboxamide] | ≤ 0.1 | ≤ 0.5 |
| CNc1ncc(-c2nc3cc(N4CCOCC4)ccc3o2)c2cc(NC(=O)C3(F)CC3)ncc12 [Example 425, 1-fluoro-N-(8-(methylamino)-5-(5-morpholinobenzo[d]oxazol-2-yl)-2,7-naphthyridin-3-yl)cyclopropane-1-carboxamide] | ≤ 0.1 | ≤ 0.5 |
| CNc1ncc(-c2nc3cc(N4CCOCC4)ccc3o2)c2cc(Nc3cc(C)n(C)n3)ncc12 [Example 426, N6-(1,5-dimethyl-1H-pyrazol-3-yl)-N^1-methyl-4-(5-morpholinobenzo[d]oxazol-2-yl)-2,7-naphthyridine-1,6-diamine] | ≤ 0.1 | ≤ 0.5 |
| CNc1ncc(-c2nc3ccccc3o2)c2cc(Nc3ccccn3)ncc12 [Example 427, 4-(benzo[d]oxazol-2-yl)-N^1-methyl-N^6-(pyridin-2-yl)-2,7-naphthyridine-1,6-diamine] | ≤ 0.1 | ≤ 0.5 |
